# Measurements reported in patent US10407388B2, “Thiourea derivatives as activators of RORα and pharmaceutical composition containing same” (SEOUL NATIONAL UNIVERSITY R & DB FOUNDATION, priority 2011, dated 2019).
# Molecular target: T1, RORα (Homo sapiens, UniProt P35398)
# T1 construct: expressed in transfected cells; host or cells: CV-1 cells (ATCC CCL-70)
# T1 sequence (P35398 1-523): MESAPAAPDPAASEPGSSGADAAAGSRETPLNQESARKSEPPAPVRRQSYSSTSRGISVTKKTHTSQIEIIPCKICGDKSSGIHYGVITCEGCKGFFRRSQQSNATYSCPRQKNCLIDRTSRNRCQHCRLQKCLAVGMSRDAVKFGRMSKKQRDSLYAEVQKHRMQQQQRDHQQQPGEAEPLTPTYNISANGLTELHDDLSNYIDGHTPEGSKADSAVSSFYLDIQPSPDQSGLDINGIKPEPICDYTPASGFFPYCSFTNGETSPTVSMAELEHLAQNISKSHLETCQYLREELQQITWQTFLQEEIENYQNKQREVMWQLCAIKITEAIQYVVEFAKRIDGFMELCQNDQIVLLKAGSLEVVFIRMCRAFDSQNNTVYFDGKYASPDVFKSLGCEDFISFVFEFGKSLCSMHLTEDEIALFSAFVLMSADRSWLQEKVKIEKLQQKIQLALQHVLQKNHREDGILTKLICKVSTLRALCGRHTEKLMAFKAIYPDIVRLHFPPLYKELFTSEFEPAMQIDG
# Assay: Transcriptional activity of RORα, RORE-tk-Luc reporter in CV-1 cells (Experimental Example 1)
# Assay type: cell-based
# Settings: JC1 compounds 100 μM, 24 hours; luciferase activity standardized by β-gal; versus control treated only with solvent
# Protocol: CV-1 cells (CCL-70) were purchased from American Type Culture Collection (ATCC). The CV-1 cells (4×10^4 cells/well) were seeded on a 24-well culture plate and cultured overnight in a Dulbecco's Modified Eagle's Medium (DMEM) containing 10% fetal bovine serum (FBS). The CV-1 cells were maintained at 37° C. in a humidification thermostat containing 5% CO2 and 95% air. After culturing, the cells were transformed with RORE-tk-Luc reporter plasmid (100 ng) and ROR expression vector (5 ng) using calcium phosphate. […]
row,SMILES,Fold Activation
1,"CNC(=S)NCc1ccccc1Cl [Compound 34, 1-(2-chloro-benzyl)-3-methyl-thiourea]",0.8
2,"CCOc1ccccc1CNC(=S)NC [Compound 16, 1-(2-ethoxy-benzyl)-3-methyl-thiourea]",1.4
3,"CCOc1cc(-c2ccc(C(C)(C)C)cc2)ccc1CNC(N)=S [Compound 45, (4′-tert-butyl-3-ethoxy-biphenyl-4-methyl)-thiourea]",1.0
4,"CNC(=S)NCc1cccc(C)c1 [Compound 6, 1-(3-methyl-benzyl)-3-methyl-thiourea]",1.1
5,"CNC(=S)NCc1ccccc1[N+](=O)[O-] [Compound 18, 1-(2-nitro-benzyl)-3-methyl-thiourea]",2.1
6,"CNC(=S)NCc1ccc2ccccc2c1 [Compound 43, 1-methyl-3-naphthalene-2-methyl-thiourea]",0.7
7,"CNC(=S)NCc1cccc(Cl)c1Cl [Compound 33, 1-(2,3-dichloro-benzyl)-3-methyl-thiourea]",0.7
8,"CNC(=S)N[C@@H](C)c1ccc(OC)cc1 [Compound 36, S-(−)-1-[1-(4-methoxy-phenyl)-ethyl]-3-methyl-thiourea]",0.6
9,"CNC(=S)NCc1ccc(-c2ccccc2)cc1 [Compound 24, 1-(4-phenyl-benzyl)-3-methyl-thiourea]",0.2
10,"CNC(=S)NCc1ccc([N+](=O)[O-])cc1 [Compound 12, 1-(4-nitro-benzyl)-3-methyl-thiourea]",1.6
11,"CNC(=S)NCc1ccc(OC)c(OCc2ccccc2)c1 [Compound 41, 1-(3-benzyloxy-4-methoxy-benzyl)-3-methyl-thiourea]",2.5
12,"CNC(=S)NCc1cccc([N+](=O)[O-])c1 [Compound 17, 1-(3-nitro-benzyl)-3-methyl-thiourea]",0.9
13,"CNC(=S)NCc1ccc(OC)c(O)c1 [Compound 25, 1-(3-hydroxy-4-methoxy-benzyl)-3-methyl-thiourea]",1.9
14,"CNC(=S)NCc1cccc(Cl)c1 [Compound 28, 1-(3-chloro-benzyl)-3-methyl-thiourea]",0.7
15,"CNC(=S)NCc1ccc(F)c(F)c1 [Compound 31, 1-(3,4-difluoro-benzyl)-3-methyl-thiourea]",0.8
16,"CCOc1cc(-c2ccccc2)ccc1CNC(=S)NC [Compound 44, 1-(3-ethoxy-biphenyl-4-methyl)-3-methyl-thiourea]",1.2
17,"CNC(=S)N[C@H](C)c1ccc(OC)cc1 [Compound 35, R-(+)-1-[1-(4-methoxy-phenyl)-ethyl]-3-methyl-thiourea]",0.7
18,"CNC(=S)NCc1ccc(Br)cc1 [Compound 2, 1-(4-bromo-benzyl)-3-methyl-thiourea]",1.4
19,"CNC(=S)NCc1ccccc1Br [Compound 1, 1-(2-bromo-benzyl)-3-methyl-thiourea]",3.4
20,"CNC(=S)NCc1ccc(O)c(OC)c1 [Compound 9, 1-(4-hydroxy-3-methoxy-benzyl)-3-methyl-thiourea]",1.4
21,"CNC(=S)NCc1ccc(C(C)(C)C)cc1 [Compound 13, 1-(4-t-butyl-benzyl)-3-methyl-thiourea]",0.9
22,"CCOc1cc(C=Cc2ccccc2)ccc1CNC(=S)NC [Compound 47, 1-(2-ethoxy-4-styryl-benzyl)-3-methyl-thiourea]",1.2
23,"CNC(=S)NCc1ccc(F)cc1F [Compound 32, 1-(2,4-difluoro-benzyl)-3-methyl-thiourea]",0.9

row,SMILES,Fold Activation
1,"CNC(=S)NCc1cc(OC)cc(OC)c1 [Compound 20, 1-(3,5-dimethoxy-benzyl)-3-methyl-thiourea]",1.0
2,"CNC(=S)NCc1ccc(OC)cc1 [Compound 4, 1-(4-methoxy-benzyl)-3-methyl-thiourea]",3.4
3,"CNC(=S)NCc1ccc(Oc2ccc(OC)cc2)cc1 [Compound 53, 1-[4-(4-methoxy-phenoxy)-benzyl]-3-methyl-thiourea]",2.1
4,"CNC(=S)NCc1ccc(Oc2ccc(F)cc2)cc1 [Compound 52, 1-[4-(4-fluoro-phenoxy)-benzyl]-3-methyl-thiourea]",1.5
5,"CNC(=S)NCc1ccc2c(c1)OCO2 [Compound 8, 1-(benzo[1,3]dioxyl-5-methyl)-3-methyl-thiourea]",1.7
6,"CNC(=S)NCc1cccc(OC)c1OC [Compound 15, 1-(2,3-dimethoxy-benzyl)-3-methyl-thiourea]",1.5
7,"CNC(=S)NCc1ccc(F)cc1 [Compound 30, 1-(4-fluoro-benzyl)-3-methyl-thiourea]",2.5
8,"CNC(=S)NCc1cc(OC)c(OC)c(OC)c1 [Compound 19, 1-(3,4,5-trimethoxy-benzyl)-3-methyl-thiourea]",2.2
9,"CNC(=S)NCc1ccc(C(F)(F)F)cc1 [Compound 11, 1-(4-trifluoromethyl-benzyl)-3-methyl-thiourea]",2.3
10,"CNC(=S)NCc1ccccc1Oc1ccccc1 [Compound 51, 1-methyl-3-(2-phenoxy-benzyl)-thiourea]",1.3
11,"CNC(=S)NCc1ccc(O)c(O)c1 [Compound 22, 1-(3,4-dihydroxy-benzyl)-3-methyl-thiourea]",0.6
12,"CNC(=S)NCc1ccc(Cl)cc1 [Compound 3, 1-(4-chloro-benzyl)-3-methyl-thiourea]",2.6
13,"CCOc1cc(-c2ccc(C(F)(F)F)cc2)ccc1CNC(=S)NC [Compound 48, 1-(3-ethoxy-4′-trifluoromethyl-biphenyl-4-methyl)-3-methyl-thiourea]",1.0
14,"CNC(=S)NCc1ccc(Cl)c(Cl)c1 [Compound 27, 1-(3,4-dichloro-benzyl)-3-methyl-thiourea]",1.0
15,"CNC(=S)NCc1ccc(N(C)C)cc1 [Compound 10, 1-(4-dimethylamino-benzyl)-3-methyl-thiourea]",1.3
16,"CNC(=S)NCc1ccc(Cl)cc1Cl [Compound 21, 1-(2,4-dichloro-benzyl)-3-methyl-thiourea]",0.6
17,"CNC(=S)NCc1ccc(OC)cc1OC [Compound 5, 1-(2,4-dimethoxy-benzyl)-3-methyl-thiourea]",1.1
18,"CNC(=S)NCc1ccccc1C [Compound 7, 1-(2-methyl-benzyl)-3-methyl-thiourea]",0.7
19,"C=CCOc1ccccc1CNC(=S)NC [Compound 39, 1-(2-allyloxy-benzyl)-3-methyl-thiourea]",1.8
20,"CNC(=S)NCc1ccc(C)cc1 [Compound 14, 1-(4-methyl-benzyl)-3-methyl-thiourea]",3.9
21,"CNC(=S)NCc1cccc(F)c1 [Compound 29, 1-(3-fluoro-benzyl)-3-methyl-thiourea]",1.1
22,"CNC(=S)NCc1ccc(OC)cc1OC [Compound 23, 1-(2,4-dimethoxy-benzyl)-3-methyl-thiourea]",2.9
